Structures can show the parent of a compound that is named as a salt. A value given as a limit tells only on which side of the number the result lay.

In this test the test system is LPS induced IL-6 secretion from whole blood. In words: Measurement of LPS Induced IL-6 Secretion from Whole Blood. The class given is cell-based. As to conditions: LPS 200 ng/ml, 24 hours, immunoassay, read-out: pIC50 (IL-6 levels) (converted). The method, then: Activation of monocytic cells by agonists of toll-like receptors such as bacterial lipopolysaccharide (LPS) results in production of key inflammatory mediators including IL-6. Such pathways are widely considered to be central to the pathophysiology of a range of auto-immune and inflammatory disorders.
After further incubation for 24 hours at 37 degrees, 140 ul of PBS are added to each well. The plates are sealed, shaken for 10 minutes and then centrifuged (2500 rpm×10 min). 100 ul of the supernatant are removed and IL-6 levels assayed by immunoassay (typically by MesoScale Discovery technology) either immediately or following storage at −20 degrees.

On to `COc1ccc2c(c1)C(c1ccc(Cl)cc1)=NC(CC(=O)NCCc1ccccc1)c1nnc(C)n1-2` (stereo not shown) [Example 2, 2-[6-(4-chlorophenyl)-1-methyl-8-(methyloxy)-4H-[1,2,4]triazolo[4,3-a][1,4]benzodiazepin-4-yl]-N-(2-phenylethyl)acetamide], for which the IC50 is no more than 10 µM. As to `COc1ccc2c(c1)C(c1ccc(Cl)cc1)=NC(CC(=O)N1CCCCC1)c1nnc(C)n1-2` (stereo not shown) [Example 3, 6-(4-chlorophenyl)-1-methyl-8-(methyloxy)-4-[2-oxo-2-(1-piperidinyl)ethyl]-4H-[1,2,4]triazolo[4,3-a][1,4]benzodiazepine], the IC50 was no more than 10 µM. Under `COc1ccc2c(c1)C(c1ccc(Cl)cc1)=NC(CC(=O)NCc1ccco1)c1nnc(C)n1-2` (stereo not shown) [Example 4, 2-[6-(4-chlorophenyl)-1-methyl-8-(methyloxy)-4H-[1,2,4]triazolo[4,3-a][1,4]benzodiazepin-4-yl]-N-(2-furanylmethyl)acetamide] stands no more than 10 µM; under `COc1ccc2c(c1)C(c1ccc(Cl)cc1)=N[C@@H](CC(=O)Nc1ccc(F)cc1)c1nnc(C)n1-2` [Example 11, 2-[(4S)-6-(4-chlorophenyl)-1-methyl-8-(methyloxy)-4H-[1,2,4]triazolo[4,3-a][1,4]benzodiazepin-4-yl]-N-(4-fluorophenyl)acetamide], no more than 10 µM. Consider `COc1ccc2c(c1)C(c1ccc(Cl)cc1)=N[C@@H](CC(=O)Nc1cccnc1)c1nnc(C)n1-2` [Example 13, 2-[(4S)-6-(4-chlorophenyl)-1-methyl-8-(methyloxy)-4H-[1,2,4]triazolo[4,3-a][1,4]benzodiazepin-4-yl]-N-3-pyridinylacetamide], for which the IC50 was no more than 10 µM. Under `COc1ccc2c(c1)C(c1ccc(Cl)cc1)=N[C@@H](CC(=O)N[C@@H](C)c1ccccc1)c1nnc(C)n1-2` [Example 17, 2-[(4S)-6-(4-chlorophenyl)-1-methyl-8-(methyloxy)-4H-[1,2,4]triazolo[4,3-a][1,4]benzodiazepin-4-yl]-N-[(1S)-1-phenylethyl]acetamide] stands no more than 10 µM; under `COc1ccc2c(c1)C(c1ccc(Cl)cc1)=NC(CC(=O)NCCN(C)C)c1nnc(C)n1-2` (stereo not shown) [Example 26, 2-[6-(4-chlorophenyl)-1-methyl-8-(methyloxy)-4H-[1,2,4]triazolo[4,3-a][1,4]benzodiazepin-4-yl]-N-[2-(dimethylamino)ethyl]acetamide], no more than 10 µM; under `Cc1nnc2n1-c1ccc(OS(C)(=O)=O)cc1C(c1ccc(Cl)cc1)=N[C@H]2CC(=O)Nc1ccc(F)cc1` [Example 31, (4S)-6-(4-Chlorophenyl)-4-{2-[(4-fluorophenyl)amino]-2-oxoethyl}-1-methyl-4H-[1,2,4]triazolo[4,3-a][1,4]benzodiazepin-8-yl methanesulfonate], no more than 10 µM.

Regarding `COC(=O)C[C@@H]1N=C(c2ccc(Cl)cc2)c2cc(OC)ccc2-n2c(C)nnc21` [Example 34, Methyl [(4S)-6-(4-chlorophenyl)-1-methyl-8-(methyloxy)-4H-[1,2,4]triazolo[4,3-a][1,4]benzodiazepin-4-yl]acetate], the IC50 is no more than 10 µM. Regarding `CNCCNC(=O)C[C@@H]1N=C(c2ccc(Cl)cc2)c2cc(OC)ccc2-n2c(C)nnc21` [Example 38, 2-[(4S)-6-(4-Chlorophenyl)-1-methyl-8-(methyloxy)-4H-[1,2,4]triazolo[4,3-a][1,4]benzodiazepin-4-yl]-N-[2-(methylamino)ethyl]acetamide trifluoroacetic acid salt], the IC50 was no more than 10 µM. The same measure for `COc1ccc2c(c1)C(c1ccc(Cl)cc1)=N[C@@H](CC(=O)NC1CCNCC1)c1nnc(C)n1-2` [Example 39, 2-[(4S)-6-(4-Chlorophenyl)-1-methyl-8-(methyloxy)-4H-[1,2,4]triazolo[4,3-a][1,4]benzodiazepin-4-yl]-N-4-piperidinylacetamide trifluoroacetic acid salt]: no more than 10 µM; for `CNC1CCN(C(=O)C[C@@H]2N=C(c3ccc(Cl)cc3)c3cc(OC)ccc3-n3c(C)nnc32)CC1` [Example 40, 1-{[(4S)-6-(4-chlorophenyl)-1-methyl-8-(methyloxy)-4H-[1,2,4]triazolo[4,3-a][1,4]benzodiazepin-4-yl]acetyl}-N-methyl-4-piperidinamine formic acid salt]: no more than 10 µM; for `COc1ccc2c(c1)C(c1ccc(Cl)cc1)=N[C@@H](CC(=O)N1CCC(N)CC1)c1nnc(C)n1-2` [Example 41, (S)-1-(4-aminopiperidin-1-yl)-2-(6-(4-chlorophenyl)-8-methoxy-1-methyl-4H-benzo[f][1,2,4]triazolo[4,3-a][1,4]diazepin-4-yl)ethanone]: no more than 10 µM. The same measure for `COc1ccc2c(c1)C(c1ccc(Cl)cc1)=N[C@@H](CC(=O)NC1CNC1)c1nnc(C)n1-2` [Example 42, (S)-N-(azetidin-3-yl)-2-(6-(4-chlorophenyl)-8-methoxy-1-methyl-4H-benzo[f][1,2,4]triazolo[4,3-a][1,4]diazepin-4-yl)acetamide]: no more than 10 µM; for `COc1ccc2c(c1)C(c1ccc(Cl)cc1)=N[C@@H](CC(=O)N1CC(N)C1)c1nnc(C)n1-2` [Example 43, (S)-1-(3-aminoazetidin-1-yl)-2-(6-(4-chlorophenyl)-8-methoxy-1-methyl-4H-benzo[f][1,2,4]triazolo[4,3-a][1,4]diazepin-4-yl)ethanone]: no more than 10 µM.

Regarding `COc1ccc2c(c1)C(c1ccc(Cl)cc1)=N[C@@H](CC(=O)N1CCC(O)CC1)c1nnc(C)n1-2` [Example 44, (S)-2-(6-(4-chlorophenyl)-8-methoxy-1-methyl-4H-benzo[f][1,2,4]triazolo[4,3-a][1,4]diazepin-4-yl)-1-(4-hydroxypiperidin-1-yl)ethanone], the IC50 was no more than 10 µM.

As to `COc1ccc2c(c1)C(c1ccc(Cl)cc1)=N[C@@H](CC(=O)NCCN1CCOCC1)c1nnc(C)n1-2` [Example 45, 2-[(4S)-6-(4-chlorophenyl)-1-methyl-8-(methyloxy)-4H-[1,2,4]triazolo[4,3-a][1,4]benzodiazepin-4-yl]-N-[2-(4-morpholinyl)ethyl]acetamide], the IC50 is no more than 10 µM.

Turning to `COc1ccc2c(c1)C(c1ccc(Cl)cc1)=N[C@@H](CC(=O)NCCc1c[nH]cn1)c1nnc(C)n1-2` [Example 46, 2-[(4S)-6-(4-chlorophenyl)-1-methyl-8-(methyloxy)-4H-[1,2,4]triazolo[4,3-a][1,4]benzodiazepin-4-yl]-N-[2-(1H-imidazol-4-yl)ethyl]acetamide], the IC50 was no more than 10 µM. The same measure for `COc1ccc2c(c1)C(c1ccc(Cl)cc1)=N[C@@H](CC(=O)OC(C)(C)C)c1nnc(C)n1-2` [Example 47, (S)-tert-butyl-2-(6-(4-chlorophenyl)-8-methoxy-1-methyl-4H-benzo[f][1,2,4]triazolo[4,3-a][1,4]diazepin-4-yl)acetate]: no more than 10 µM; for `COc1ccc2c(c1)C(c1ccc(Cl)cc1)=N[C@@H](CC(=O)OC1CCNCC1)c1nnc(C)n1-2` [Example 48, (S)-piperidin-4-yl-2-(6-(4-chlorophenyl)-8-methoxy-1-methyl-4H-benzo[f][1,2,4]triazolo[4,3-a][1,4]diazepin-4-yl)acetate]: no more than 10 µM. Consider `COc1ccc2c(c1)C(c1ccc(Cl)cc1)=N[C@@H](CC(=O)NCCN(C)C)c1nnc(C)n1-2` [Example 50, 2-[(4S)-6-(4-chlorophenyl)-1-methyl-8-(methyloxy)-4H-[1,2,4]triazolo[4,3-a][1,4]benzodiazepin-4-yl]-N-[2-(dimethylamino)ethyl]acetamide formic acid salt], for which the IC50 was no more than 10 µM. The same measure for `COc1ccc2c(c1)C(c1ccc(Cl)cc1)=N[C@@H](CC(=O)NCCCN(C)C)c1nnc(C)n1-2` [Example 51, 2-[(4S)-6-(4-chlorophenyl)-1-methyl-8-(methyloxy)-4H-[1,2,4]triazolo[4,3-a][1,4]benzodiazepin-4-yl]-N-[3-(dimethylamino)propyl]acetamide formic acid salt]: no more than 10 µM.

`COc1ccc2c(c1)C(c1ccc(Cl)cc1)=N[C@@H](CC(=O)Nc1ccncn1)c1nnc(C)n1-2` [Example 54, 2-[(4S)-6-(4-chlorophenyl)-1-methyl-8-(methyloxy)-4H-[1,2,4]triazolo[4,3-a][1,4]benzodiazepin-4-yl]-N-4-pyrimidinylacetamide]: the IC50 is no more than 10 µM. In the case of `COc1ccc2c(c1)C(c1ccc(Cl)cc1)=N[C@@H](CC(=O)Nc1cc(C)on1)c1nnc(C)n1-2` [Example 55, 2-[(4S)-6-(4-chlorophenyl)-1-methyl-8-(methyloxy)-4H-[1,2,4]triazolo[4,3-a][1,4]benzodiazepin-4-yl]-N-(5-methyl-3-isoxazolyl)acetamide], the IC50 is no more than 10 µM.

As for `COc1ccc2c(c1)C(c1ccc(Cl)cc1)=N[C@@H](CC(=O)NC1CCOCC1)c1nnc(C)n1-2` [Example 56, 2-[(4S)-6-(4-chlorophenyl)-1-methyl-8-(methyloxy)-4H-[1,2,4]triazolo[4,3-a][1,4]benzodiazepin-4-yl]-N-(tetrahydro-2H-pyran-4-yl)acetamide], the IC50 is no more than 10 µM.

As to `COc1ccc(COC(=O)C[C@@H]2N=C(c3ccc(Cl)cc3)c3cc(OC)ccc3-n3c(C)nnc32)cc1` [Example 58], the IC50 is no more than 10 µM. Under `COc1ccc2c(c1)C(c1ccc(Cl)cc1)=N[C@@H](CC(=O)OCC(C)C)c1nnc(C)n1-2` [Example 59] stands no more than 10 µM; under `COc1ccc2c(c1)C(c1ccc(Cl)cc1)=N[C@@H](CC(=O)OC1CCOCC1)c1nnc(C)n1-2` [Example 60], no more than 10 µM. Take `COc1ccc2c(c1)C(c1ccc(Cl)cc1)=NC(CC(=O)Nc1ccncc1)c1nnc(C)n1-2` (stereo not shown) [Example 61]: the IC50 was no more than 10 µM. Under `COc1ccc2c(c1)C(c1ccc(Cl)cc1)=NC(CC(=O)NCC1CC1)c1nnc(C)n1-2` (stereo not shown) [Example 62] stands no more than 10 µM; under `Cc1nnc2n1-c1ccccc1C(c1ccc(Cl)cc1)=NC2CC(=O)Nc1ccncc1` (stereo not shown) [Example 63], no more than 10 µM.

The values are drawn from patent publication US9598420B2, “Benzodiazepine bromodomain inhibitor” (GlaxoSmithKline LLC, priority 2009, dated 2017).
